Data on one substance can be found in paper PMC12736563, “NMR Unveils Activity Mechanism of Linear Spider Venom Peptide Fragments Selected by Neural Networks Against Staphylococci Including MRSA” (Pharmaceutics, 2025).

The test system of data set [1] is S. epidermidis ATCC 14990. Put plainly: microbe, parasite or virus in culture. The format is cell-based, Staphylococcus epidermidis. Conditions: two-fold serial dilution in MHB, ~1 × 10^5 cells/mL, starting 200 μg/mL, values in Figure 2. The protocol:
(§1) For antimicrobial activity determination, Gram-positive strains (Staphylococcus aureus 209P, ATCC 29213, ATCC 25923, ATCC 43300 [MRSA], S. epidermidis ATCC 14990) were used. Experiments were conducted at bacterial concentrations of (0.5–1) × 10^5 cells/mL. […] Briefly, overnight cultures in Mueller-Hinton broth (MHB, HiMedia, Mumbai, Maharashtra, India) were diluted 1:100 into fresh MHB and incubated at 37 °C for 3 h. Cultures were then adjusted to ~1 × 10^5 cells/mL (by OD600) and used as an inoculate. Peptide stocks (10 mg/mL in water) were prepared in MHB to achieve a starting concentration of 200 μg/mL and subsequently diluted twofold.

Data set [2] deals with S. aureus ATCC 25923. Put plainly: microbe, parasite or virus in culture. Format: cell-based, Staphylococcus aureus. To be noted: two-fold serial dilution in MHB, ~1 × 10^5 cells/mL, starting 200 μg/mL, Figure 2. The protocol:
as §1

Data set [3] concerns S. aureus ATCC 29213 (MSSA). Put plainly: microbe, parasite or virus in culture. Format: cell-based, Staphylococcus aureus. Conditions: two-fold serial dilution in MHB, ~1 × 10^5 cells/mL, starting 200 μg/mL, Figure 2. The protocol: as §1
In data set [4] the test system is S. aureus ATCC 43300 (MRSA). Put plainly: microbe, parasite or virus in culture. To be noted: S. aureus ATCC 43300 (MRSA); two-fold serial dilution in MHB, ~1 × 10^5 cells/mL, starting 200 μg/mL; Figure 2. Format: cell-based, Staphylococcus aureus. The method, then: as §1
For data set [5], the system named is human red blood cells. Put plainly: Hemolytic activity. Format: cell-based. To be noted: fresh human capillary blood, two independent experiments. The protocol:
Hemolytic activity was assessed using fresh capillary blood from a human volunteer, as described in [28]. Each peptide’s hemolytic activity was tested in two independent experiments.

The test system of data set [6] is E. coli, ATCC 25922. Put plainly: microbe, parasite or virus in culture. Format: cell-based.
The subject of data set [7] is E. coli, lptD. Put plainly: microbe, parasite or virus in culture. Format: cell-based. Conditions: E. coli, lptD.
Data set [8] has as its system E. coli, ΔtolC. Put plainly: microbe, parasite or virus in culture. Format: cell-based. To be noted: E. coli, ΔtolC.
Data set [9] in a line: pKa of His12 side chain by NMR pH titration. The format is physicochemical. The method, then: NMR experiments in aqueous and micellar solutions were performed using samples containing 0.2–1.0 mM of peptide IX in 5% D2O at pH of 4.5. To model a membrane environment, 1-palmitoyl-2-hydroxy-sn-glycero-3-phospho-(1′-rac-glycerol) (LPPG, 16:0 Lyso PG, Avanti, Alabaster, AL, USA) was added stepwise to the aqueous peptide IX sample using a concentrated stock solution until a detergent-to-peptide (D:P) molar ratio of 140:1 was achieved. The NMR spectra were acquired on a Bruker Avance III 800 MHz spectrometer (Karlsruhe, Germany) equipped with a room-temperature triple-resonance (^1H, ^13C, ^15N) probe. Almost complete ^1H, ^13C, and ^15N resonance assignments for peptide IX in aqueous solution and LPPG micelles were obtained via a combination of 2D ^1H-TOCSY (τm = 60 ms), ^1H-NOESY (τm = 150 ms) and natural abundance ^13C-HSQC and ^15N-HSQC spectra measured at 5 °C and 45 °C, respectively, using the CARA 1.9.1.7 software (http://cara.nmr.ch/doku.php/Home (accessed on 12 December 2024)). […] The temperature gradients of amide protons (∆δ^1H^N/∆T) were measured from a series of 2D TOCSY spectra in water and 2D NOESY spectra in LPPG acquired in the temperature range of 15–45 °C. The pH-dependences of the ^1H^N and ^1H^δ2 His12 chemical shifts were measured in the pH range 2–9 from a series of 2D TOCSY spectra in water at 30 °C and 2D NOESY spectra in LPPG micelles at 45 °C. […]

A short description of data set [10]: Solubility in water (statement). The format is physicochemical. To be noted: aqueous solution; NMR samples 0.2–1.0 mM.

Ends that are not written are not given here.

On to IWLSLMKFAGKHL-NH2 [IX], for which the MIC in [1] is 12.50 µg/mL; in [2], 25.00 µg/mL; in data set [3], 25.00 µg/mL; in data set [4] it was 25.00 µg/mL; in [6], more than 200 µg/mL; in data set [7], 50 µg/mL. In data set [8], this substance showed an MIC of 200 µg/mL. For the same substance, the “Hemolysis (%)” value in [5] (25 μM peptide) was determined as 0%; in data set [5] (50 μM peptide), 14%; in data set [5] (100 μM peptide), 100%. Moreover, the “pKa of His12 side chain” value in data set [9] (LPPG micelles, D:P 140:1, 2D NOESY at 45 °C) is recorded as 7.86 ± 0.24; in data set [9] (aqueous solution, 5% D2O, 2D TOCSY at 30 °C, pH range of 3–8), 6.02 ± 0.05. Besides, the “solubility in water (in words)” value in data set [10] is “water-soluble”.
